The NIST ThermoML archive (doi:10.1016/j.fluid.2013.10.011)
± gives the expanded uncertainty stated by the source.

Conditions: Crystal; visual observation

O=C(O)C[C@H](O)C(=O)O [l-hydroxysuccinic acid]
Normal melting temperature: 99.50 ± 1.6 °C
